The record followed here is patent US20240228469A1, “PCSK9 INHIBITORS AND METHODS OF USE THEREOF” (AstraZeneca AB, priority 2022, published 2024).

Molecules are shown by their SMILES.

Usually IC50 stands for the point on the concentration scale where inhibition reaches its midpoint.

Assay [1] addresses T1, potassium ion channel hERG (Homo sapiens, UniProt Q12809).
T1 construct: expressed in transfected cells; host or cells: Chinese hamster ovary K1 (CHO)
Put plainly: Assay 5 hERG assay (patch clamp, CHO cells over-expressing hERG). It is filed as cell-based. The settings on record: SyncroPatch 384PE, room temperature, geometric mean, read-out: Assay 5 (hERG Hu CHO if EPh CR-Syncro) GMean IC50. Put shortly:
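hERG currents recorded by automated patch clamp at room temperature in CHO-K1 cells, 6-point cumulative concentrations. SyncroPatch runs used KF-based internal (pH 7.2) and NMDG-containing external solution (pH 7.4), 0.33% DMSO; QPatchII runs used 2% or 0.4% DMSO. Only wells meeting seal-resistance and current-size criteria kept.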
For orientation: Block of hERG is tested as a sign of cardiac risk.

For assay [2], the target named is T2, PCSK9 (Homo sapiens, UniProt Q8NBP7, G670E/V474I). Put plainly: biochemical.
Assay [3] has as its target T2, PCSK9. The assay is described as follows: Assay 3 PCSK9 LDL-C uptake assay in HepG2 cells. In kind it is cell-based. On the set-up: TEV site (C); His6 (C); host or cells: added to HepG2 (ATCC #HB-8065). The settings on record: 125 nM PCSK9, pHrodo Red-LDL, read-out: Assay 3 LDL uptake potency. The essentials: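 HepG2 cells were plated for 24 h, then exposed for 24 h at 37 °C to compounds (half-log series, 10 μM top) with 125 nM exogenous PCSK9. pHrodo Red-LDL ([…]) uptake was then imaged by fluorescence at 4 h and 24 h. Signal was normalized as % effect between DMSO and 100 nM evolocumab, with a four-parameter logistic fit.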

T1 sequence (Q12809 whole entry): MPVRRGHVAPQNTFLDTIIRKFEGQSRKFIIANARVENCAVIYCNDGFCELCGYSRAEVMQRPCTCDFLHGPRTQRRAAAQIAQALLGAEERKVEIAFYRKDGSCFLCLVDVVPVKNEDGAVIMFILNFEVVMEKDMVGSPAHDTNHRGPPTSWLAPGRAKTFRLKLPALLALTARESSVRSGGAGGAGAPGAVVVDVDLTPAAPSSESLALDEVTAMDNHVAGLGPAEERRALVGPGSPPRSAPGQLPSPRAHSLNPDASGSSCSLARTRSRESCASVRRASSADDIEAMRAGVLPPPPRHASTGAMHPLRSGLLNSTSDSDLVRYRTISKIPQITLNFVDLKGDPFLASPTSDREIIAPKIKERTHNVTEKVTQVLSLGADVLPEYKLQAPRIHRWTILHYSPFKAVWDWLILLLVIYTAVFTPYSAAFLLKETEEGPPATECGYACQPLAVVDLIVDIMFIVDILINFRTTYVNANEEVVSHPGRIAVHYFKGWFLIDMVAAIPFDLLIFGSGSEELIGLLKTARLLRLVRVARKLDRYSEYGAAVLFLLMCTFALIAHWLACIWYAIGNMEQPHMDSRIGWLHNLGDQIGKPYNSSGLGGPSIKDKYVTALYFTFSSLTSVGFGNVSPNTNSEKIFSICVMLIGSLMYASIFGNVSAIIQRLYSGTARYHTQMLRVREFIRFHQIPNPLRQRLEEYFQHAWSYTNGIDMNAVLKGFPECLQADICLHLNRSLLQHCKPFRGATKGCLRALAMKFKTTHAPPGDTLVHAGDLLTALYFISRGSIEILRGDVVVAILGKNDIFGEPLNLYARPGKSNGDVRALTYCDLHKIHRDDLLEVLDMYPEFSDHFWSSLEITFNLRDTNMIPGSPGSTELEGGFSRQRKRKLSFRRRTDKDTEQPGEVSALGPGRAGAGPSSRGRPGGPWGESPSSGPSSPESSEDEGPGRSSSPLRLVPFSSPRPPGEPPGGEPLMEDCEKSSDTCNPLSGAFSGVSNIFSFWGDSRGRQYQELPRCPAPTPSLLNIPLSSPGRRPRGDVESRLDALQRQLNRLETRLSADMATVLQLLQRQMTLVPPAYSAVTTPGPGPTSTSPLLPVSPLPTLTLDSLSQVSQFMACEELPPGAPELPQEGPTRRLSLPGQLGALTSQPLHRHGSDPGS
T2 sequence (Q8NBP7 with tags, fused parts or gaps V474I/G670E): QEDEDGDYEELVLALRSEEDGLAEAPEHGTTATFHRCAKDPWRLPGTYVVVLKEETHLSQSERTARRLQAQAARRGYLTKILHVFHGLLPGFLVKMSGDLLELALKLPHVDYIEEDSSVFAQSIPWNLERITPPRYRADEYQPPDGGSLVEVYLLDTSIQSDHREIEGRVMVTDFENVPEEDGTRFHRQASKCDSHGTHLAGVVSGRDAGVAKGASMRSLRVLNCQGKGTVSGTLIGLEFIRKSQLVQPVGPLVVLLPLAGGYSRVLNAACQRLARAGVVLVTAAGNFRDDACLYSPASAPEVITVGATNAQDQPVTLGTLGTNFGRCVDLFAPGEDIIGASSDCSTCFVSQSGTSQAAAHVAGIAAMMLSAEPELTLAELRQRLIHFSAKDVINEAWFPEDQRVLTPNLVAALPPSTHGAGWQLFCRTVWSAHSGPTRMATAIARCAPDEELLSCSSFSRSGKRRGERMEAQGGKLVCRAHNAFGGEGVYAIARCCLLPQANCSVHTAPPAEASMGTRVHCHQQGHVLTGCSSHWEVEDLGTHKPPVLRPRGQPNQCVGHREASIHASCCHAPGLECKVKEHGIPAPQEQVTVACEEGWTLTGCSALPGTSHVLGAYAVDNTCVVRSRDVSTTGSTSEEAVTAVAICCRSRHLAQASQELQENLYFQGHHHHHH

Regarding `O=c1ccc(Cl)cn1-c1ccc(N[C@H]2CC[C@H](Nc3ncc(C4CC4)nn3)C2)nc1` [Example 112, 5-Chloro-6′-(((1S,3S)-3-((6-cyclopropyl-1,2,4-triazin-3-yl)amino)cyclopentyl)amino)-2H-[1,3′-bipyridin]-2-one], the concentration for half-maximal inhibition (IC50) in assay [1] is over 40100 nM; against PCSK9 [2], 4.7 nM. In addition, the EC50 on PCSK9 [3] turned out to be 200 nM.

As to `Cc1cnc(N[C@H]2CC[C@H](Nc3ccc(-n4cc(Cl)ccc4=O)cn3)C2)nn1` [Example 134, 5-Chloro-6′-(((1S,3S)-3-((6-methyl-1,2,4-triazin-3-yl)amino)cyclopentyl)amino)-2H-[1,3′-bipyridin]-2-one], the figures for the IC50 (in assay [1]; against PCSK9 [2]) were over 40000 nM and 8.4 nM, respectively. Moreover, the EC50 on PCSK9 [3] came to 500 nM.

Regarding `Cn1c(=O)n(-c2ccc(N[C@H]3CC[C@H](Nc4ncc(C5CC5)nn4)C3)nc2)c2cc(C#N)ccc21` [Example 116, 3-(6-(((1S,3S)-3-((6-Cyclopropyl-1,2,4-triazin-3-yl)amino)cyclopentyl)amino)pyridin-3-yl)-1-methyl-2-oxo-2,3-dihydro-1H-benzo[d]imidazole-5-carbonitrile], the IC50 is 12000 nM in assay [1] and 0.7 nM against PCSK9 [2]. Further, the EC50 on PCSK9 [3] worked out at 100 nM.

For `O=c1ccccn1-c1ccc(N[C@H]2CC[C@H](Nc3ncc(C4CC4)nn3)C2)nc1` [Example 50, 6′-(((1S,3S)-3-((6-Cyclopropyl-1,2,4-triazin-3-yl)amino)cyclopentyl)amino)-2H-[1,3′-bipyridin]-2-one], the results for the IC50 (in assay [1]; at PCSK9 [2]) were over 40000 nM and 8 nM, respectively. For the same compound, the EC50 on PCSK9 [3] came out at 300 nM.

With `Cc1cnc(N[C@H]2CC[C@H](Nc3ccc(-n4cccc(-c5cnn(C)c5)c4=O)cn3)C2)nn1` [Example 198, 6′-(((1S,3S)-3-((6-Methyl-1,2,4-triazin-3-yl)amino)cyclopentyl)amino)-3-(1-methyl-1H-pyrazol-4-yl)-2H-[1,3′-bipyridin]-2-one], the figures for the IC50 (in assay [1]; at PCSK9 [2]) were over 40100 nM and 2.9 nM, respectively. Besides, at PCSK9 [3], the EC50 is 100 nM.

Turning to `C#CCNC(=O)c1cnc(N[C@H]2CC[C@H](Nc3ccc(-n4ccccc4=O)cn3)C2)nn1` [Example 69, 3-(((1S,3S)-3-((2-Oxo-2H-[1,3′-bipyridin]-6′-yl)amino)cyclopentyl)amino)-N-(prop-2-yn-1-yl)-1,2,4-triazine-6-carboxamide], the IC50 in assay [1] was over 40000 nM; against PCSK9 [2] it was 20 nM. Further, the EC50 at PCSK9 [3] stood at 200 nM.

`COc1ccc(=O)n(-c2ccc(N[C@H]3CC[C@H](Nc4ncc(C5CC5)nn4)C3)nc2)c1` [Example 65, 6′-(((1S,3S)-3-((6-Cyclopropyl-1,2,4-triazin-3-yl)amino)cyclopentyl)amino)-5-methoxy-2H-[1,3′-bipyridin]-2-one]: the IC50 is 38800 nM in assay [1] and 11.8 nM against PCSK9 [2]. For the same compound, the EC50 on PCSK9 [3] worked out at 500 nM.

For `Cc1cnc(N[C@H]2CC[C@H](Nc3ccc(-n4cccc(C)c4=O)cn3)C2)nn1` [Example 131, 3-Methyl-6′-(((1S,3S)-3-((6-methyl-1,2,4-triazin-3-yl)amino)cyclopentyl)amino)-2H-[1,3′-bipyridin]-2-one], the IC50 in assay [1] was over 72600 nM; against PCSK9 [2], 2.7 nM. Further, on PCSK9 [3], the EC50 amounted to 100 nM.

As to `CN1C(=O)CN(c2ccc(N[C@H]3CC[C@H](Nc4ncc(C5CC5)nn4)C3)nc2)C1=O` [Example 62, 1-(6-(((1S,3S)-3-((6-Cyclopropyl-1,2,4-triazin-3-yl)amino)cyclopentyl)amino)pyridin-3-yl)-3-methylimidazolidine-2,4-dione], the IC50 in assay [1] is 36300 nM; on PCSK9 [2] it was 6.5 nM. The EC50 at PCSK9 [3] is 300 nM.

Turning to `Cc1cnc(N[C@H]2CC[C@H](Nc3ccc(-n4ccccc4=O)cn3)C2)nn1` [Example 67, 6′-(((1S,3S)-3-((6-Methyl-1,2,4-triazin-3-yl)amino)cyclopentyl)amino)-2H-[1,3′-bipyridin]-2-one], the concentration for half-maximal inhibition (IC50) in assay [1] is over 40000 nM; against PCSK9 [2], 16 nM. Besides, the EC50 on PCSK9 [3] was 600 nM.

For `Cc1cnc(N[C@H]2CC[C@H](Nc3ccc(-n4c(=O)ccc5cccnc54)cn3)C2)nn1` [Example 197, 1-(6-(((1S,3S)-3-((6-Methyl-1,2,4-triazin-3-yl)amino)cyclopentyl)amino)pyridin-3-yl)-1,8-naphthyridin-2(1H)-one], the IC50 was over 40100 nM in assay [1] and 2.5 nM at PCSK9 [2]. Besides, the EC50 on PCSK9 [3] worked out at 100 nM.

`CNC(=O)c1cnc(N[C@H]2CC[C@H](Nc3ccc(-n4ccccc4=O)cn3)C2)nn1` [Example 75, N-Methyl-3-(((1S,3S)-3-((2-oxo-2H-[1,3′-bipyridin]-6′-yl)amino)cyclopentyl)amino)-1,2,4-triazine-6-carboxamide]: the IC50 in assay [1] was over 40000 nM; against PCSK9 [2], 33 nM. Further, on PCSK9 [3], the EC50 amounted to 700 nM.
